pIC50: −log10 of the molar value. Values joined by “and” are separate entries in the source; they are usually repeats but may differ in a detail not shown here. Identical values can stand only once. Counter-ions that a name gives are not always drawn.

Data set [1] can be described thus: in vitro. Particulars: chlorocebus sabaeus.
In another data set the test system is SARS-CoV-2. The data set is described as follows: microbe, parasite or virus in culture. Type of data set: functional, organism-based, Chlorocebus sabaeus, Vero C1008.
A short description of data set [2]: in vitro. Particulars: chlorocebus sabaeus. This is another data set of the same source.
Where [3] appears, read: VERO-E6 cells, Selectivity index.
The mark [4] stands for this setting: Severe acute respiratory syndrome coronavirus 2, Vero C1008, 48 h.
Where [5] appears, read: VERO-E6 cells (Vero C1008), uninfected, CC50.

For `CC(C)(C)C(=O)/C(=C/c1cccc([N+](=O)[O-])c1)n1cncn1`, the selectivity ratio in the data set “in vitro [1]” (setting [3]) came out at 1.23. The negative logarithm of the IC50 (pIC50) with SARS-CoV-2 (setting [4]) was 5.36. This compound also displayed a CC50 at 48 h in the data set “in vitro [2]” (setting [5]) of 5.31 µM.

For the compound `O[C@@H](COc1cccc2ncccc12)CN1CCN([C@@H]2c3ccccc3[C@@H]3[C@H](c4ccccc42)C3(F)F)CC1` [ZOSUQUIDAR TRIHYDROCHLORIDE], in the data set “in vitro [1]” (vero c1008, Selectivity index), the selectivity ratio worked out at 1.08. This compound had a negative-log IC50 (pIC50) in the data set on SARS-CoV-2 (setting [4]) of 5.08. The CC50 at 48 h in the data set “in vitro [2]” (vero c1008, CC50) worked out at 9.11 µM.

On to `OCCCNc1cc(-c2ccnc(Nc3cccc(Cl)c3)n2)ccn1`, for which the selectivity ratio in the data set “in vitro [1]” (setting [3]) came out at 1.03. This compound also gave a negative logarithm of the IC50 (pIC50) in the data set with SARS-CoV-2 (setting [4]) of 5.10. In the data set “in vitro [2]” (setting [5]), the CC50 at 48 h was found to be 8.17 µM.

In turn, `CC1=NN(c2ccc(C)c(C)c2)C(=O)/C1=N\Nc1cccc(-c2cccc(C(=O)O)c2)c1O` [ELTROMBOPAG] had a pIC50 in the data set on SARS-CoV-2 (setting [4]) of less than 4.48. For the same compound, in “in vitro [2]” (setting [5]), the CC50 at 48 h stood at 3.26 µM.

On to `Cc1[nH]c(/C=C2\C(=O)Nc3cc(-c4ccccc4)ccc32)c(C)c1CCC(=O)O`, for which, in “in vitro [1]” (setting [3]), the selectivity ratio is 0.01. In the data set on SARS-CoV-2 (setting [4]), this compound gave a negative-log IC50 (pIC50) of 5.39. Besides, in the data set “in vitro [2]” (setting [5]), the CC50 at 48 h is 0.03 µM.

In turn, `C[C@@H](OC[C@@]1(c2ccccc2)CC[C@]2(CCC(=O)N2)CN1)c1cc(C(F)(F)F)cc(C(F)(F)F)c1` [ROLAPITANT] showed a pIC50 with SARS-CoV-2 (setting [4]) of 4.71. The same compound yielded a CC50 at 48 h in “in vitro [2]” (setting [5]) greater than 33 µM.

As to `CC(C)c1cccc2c(-c3ccccc3)cc(-c3ccc(-c4ccc(C(=O)O)cc4)[nH]3)nc12`, the negative logarithm of the IC50 (pIC50) in the data set on SARS-CoV-2 (setting [4]) was less than 4.48. Moreover, the CC50 at 48 h in the data set “in vitro [2]” (setting [5]) is greater than 33 µM.

For `Cc1cc(O)c2c(=O)c3c(O)cc(O)c4c5c(O)cc(O)c6c(=O)c7c(O)cc(C)c8c1c2c(c34)c(c78)c65` [HYPERICIN], the selectivity ratio in the data set “in vitro [1]” (setting [3]) came to 5.24. The compound also gave a pIC50 with SARS-CoV-2 (setting [4]) of 6.60. This compound also came in with a CC50 at 48 h in the data set “in vitro [2]” (setting [5]) of 1.31 µM.

In the case of `CC(C)(C)c1cc(C=C(C#N)C#N)cc(Br)c1O`, in the data set “in vitro [1]” (setting [3]), the selectivity ratio turned out to be 1.18. The pIC50 in the data set with SARS-CoV-2 (setting [4]) was 5.06. The compound further yielded a CC50 at 48 h in the data set “in vitro [2]” (setting [5]) of 10.4 µM.

On to `COCCNCc1ccc(-c2cc3nccc(Oc4ccc(NC(=S)NC(=O)Cc5ccc(F)cc5)cc4F)c3s2)nc1` [GLESATINIB], for which the selectivity ratio in “in vitro [1]” (setting [3]) worked out at 0.62. In the data set with SARS-CoV-2 (setting [4]), this compound had a negative-log IC50 (pIC50) of 5.98. In addition, the CC50 at 48 h in the data set “in vitro [2]” (setting [5]) was 0.64 µM.

The compound `CC(C)(C)c1cc(/C=C(\C#N)C(N)=S)cc(C(C)(C)C)c1O` [TYRPHOSTIN AG 879] gave a negative-log IC50 (pIC50) in the data set with SARS-CoV-2 (setting [4]) of less than 4.48. In addition, the CC50 at 48 h in “in vitro [2]” (setting [5]) was greater than 33 µM.

On to `COc1ccc(C[C@H]2NC[C@H](O)[C@H]2OC(C)=O)cc1` [ANISOMYCIN], for which, in the data set “in vitro [1]” (setting [3]), the selectivity ratio was 1.11. This compound also had a negative logarithm of the IC50 (pIC50) in the data set with SARS-CoV-2 (setting [4]) of 7.05. The compound further had a CC50 at 48 h in “in vitro [2]” (vero c1008, CC50) of 0.1 µM.

In the data set with SARS-CoV-2 (setting [4]), `Nc1cc2c3ccccc3ccc2c2ccccc12` showed a negative logarithm of the IC50 (pIC50) of 4.93. In addition, the CC50 at 48 h in “in vitro [2]” (setting [5]) was greater than 33 µM.

With `CC1=C(/C=C/C(C)=C/C=C/C(C)=C/C(=O)Nc2ccc(O)cc2)C(C)(C)CCC1` [FENRETINIDE], in the data set with SARS-CoV-2 (setting [4]), the pIC50 is less than 4.48. The CC50 at 48 h in the data set “in vitro [2]” (setting [5]) amounted to 10.5 µM.

Turning to `Cc1cc([N+](=O)[O-])ccc1NS(=O)(=O)c1cc(Cl)ccc1Cl`, in the data set on SARS-CoV-2 (setting [4]), the negative logarithm of the IC50 (pIC50) was less than 4.48. In the data set “in vitro [2]” (setting [5]), this compound yielded a CC50 at 48 h of 16.6 µM.

For the compound `CNC(=O)Nc1ccc(-c2nc(N3CC4CCC(C3)O4)c3cnn(C4CCC5(CC4)OCCO5)c3n2)cc1`, in “in vitro [1]” (setting [3]), the selectivity ratio turned out to be 0.01. Also, the negative-log IC50 (pIC50) with SARS-CoV-2 (setting [4]) was 4.67. Also, the CC50 at 48 h in “in vitro [2]” (setting [5]) was found to be 0.18 µM.

Take `CCCCOCCOc1ccc(-c2ccc3c(c2)/C=C(/C(=O)Nc2ccc([S@@+]([O-])Cc4cncn4CCC)cc2)CCCN3CC(C)C)cc1` [CENICRIVIROC]: the pIC50 with SARS-CoV-2 (setting [4]) is less than 4.48. The compound also displayed a CC50 at 48 h in “in vitro [2]” (setting [5]) of 11.7 µM.

`O=C(O)c1ccc(N2C(=O)/C(=C/c3ccc(-c4ccc([N+](=O)[O-])cc4)o3)C=C2c2ccccc2)cc1` had a pIC50 with SARS-CoV-2 (setting [4]) of less than 4.48. The same compound had a CC50 at 48 h in “in vitro [2]” (setting [5]) of 12.8 µM.

Regarding `Cc1cnc(Nc2ccc(F)cc2Cl)nc1-c1c[nH]c(C(=O)N[C@H](CO)c2cccc(Cl)c2)c1`, the selectivity ratio in “in vitro [1]” (setting [3]) was determined as 0.35. In the data set on SARS-CoV-2 (setting [4]), this compound showed a pIC50 of 5.26. The same compound gave a CC50 at 48 h in the data set “in vitro [2]” (setting [5]) of 1.92 µM.

Take `O=C(Nc1ccc([N+](=O)[O-])cc1Cl)c1cc(Cl)ccc1O` [NICLOSAMIDE]: the pIC50 in the data set with SARS-CoV-2 (vero c1008) is 5.39 and < 4.48. Besides, in the data set “in vitro [2]” (vero c1008, CC50), the CC50 at 48 h is greater than 33 µM.

On to `O=C(C1CC1)N1CC[C@@H](Cc2n[nH]c(=O)n2-c2ccc(-c3ccc4occc4c3)cc2)C1`, for which the selectivity ratio in “in vitro [1]” (vero c1008, Selectivity index) is 1.94. In the data set with SARS-CoV-2 (setting [4]), this compound showed a negative logarithm of the IC50 (pIC50) of 4.77. In addition, in “in vitro [2]” (vero c1008, CC50), the CC50 at 48 h was greater than 33 µM.

For the compound `N[C@H]1CC[C@H](N[C@@H]2C[C@H]2c2ccccc2)CC1`, the selectivity ratio in the data set “in vitro [1]” (setting [3]) is 1. Further, the negative logarithm of the IC50 (pIC50) with SARS-CoV-2 (setting [4]) was less than 4.48. This compound also returned a CC50 at 48 h in the data set “in vitro [2]” (setting [5]) greater than 33 µM.

`COc1ccc(-c2c[nH]c3nccc(-c4ccsc4)c23)c(OC)c1`: the selectivity ratio in “in vitro [1]” (setting [3]) came to 0.05. In the data set with SARS-CoV-2 (setting [4]), this compound showed a pIC50 of 4.80. This compound also displayed a CC50 at 48 h in the data set “in vitro [2]” (setting [5]) of 0.82 µM.

On to `CC(C)(C)c1ccccc1Oc1ncccc1NC(=O)Nc1ccc(OC(F)(F)F)cc1`, for which the selectivity ratio in “in vitro [1]” (setting [3]) came to 1.41. The same compound had a pIC50 with SARS-CoV-2 (setting [4]) of 5.15. This compound displayed a CC50 at 48 h in the data set “in vitro [2]” (setting [5]) of 9.9 µM.

Compound `C[C@H]1Cc2c([nH]c3cc(Cl)c(F)cc23)[C@@]2(N1)C(=O)Nc1ccc(Cl)cc12` [CIPARGAMIN] showed a pIC50 in the data set with SARS-CoV-2 (setting [4]) of less than 4.48. In addition, the CC50 at 48 h in the data set “in vitro [2]” (setting [5]) is greater than 33 µM.
